Where a name gives a salt, the structure may show the parent alone. ± gives the uncertainty stated by the source.
Experiments:
[1] = tested on: THP-1; experiment: efficacy of IL-8 induction relative to DMSO (% activity); higher = stronger induction; details: exposure time: 18 h
[2] = tested on: cysteine peptide Ac-RFAACAA-COOH; experiment: efficacy of cysteine peptide change (negative = depletion) (% activity); higher = less depletion; details: incubation time: 24 h
[3] = tested on: KeratinoSens (HaCaT ARE-luciferase) cells; experiment: efficacy of ARE luciferase induction relative to DMSO (% activity over DMSO); higher = stronger induction; details: exposure time: 24 h
[4] = tested on: lysine peptide Ac-RFAAKAA-COOH; experiment: efficacy of lysine peptide change (negative = depletion) (% activity); higher = less depletion; details: incubation time: 24 h
[5] = tested on: KeratinoSens (HaCaT ARE-luciferase) cells; experiment: cytotoxicity AC50 (CellTiter-Fluor viability); higher = less cytotoxic; details: exposure time: 24 h

SMILES	efficacy of IL-8 induction [1]	efficacy of cysteine peptide change [2]	efficacy of ARE luciferase induction [3]	efficacy of lysine peptide change [4]	cytotoxicity AC50 [5] [µM]
O=C(O)c1cn(C2CC2)c2cc(N3CCNCC3)c(F)cc2c1=O [Ciprofloxacin]	0	8.17 ± 8.2	14.6 ± 25	-2.18 ± 19	
C#CCN(C)CCCOc1ccc(Cl)cc1Cl [Clorgyline hydrochloride]	0	42.2 ± 21	43.6 ± 25	20.7 ± 22	
O=C(O)CCCCCCCCC(=O)O [Decanedioic acid]	0.59 ± 6	54.5	5.23 ± 4.5	3.76 ± 20	
CCOC(=O)CCC(=O)OCC [Diethyl butanedioate]	3.24 ± 5.6	47 ± 2.6	24.9 ± 23	2.82 ± 10	
c1cc(OCC2CO2)cc(OCC2CO2)c1 (configuration not stated) [Diglycidyl resorcinol ether (DGRE)]	29.2 ± 11	-8.5 ± 7.8	74.5 ± 5.8	46.9 ± 8.6	63.9 ± 12
COP(=O)(O)OP(=O)(O)OC [Dimethyl dihydrogen diphosphate]	0	0	22.1 ± 30	4.84 ± 8.4	
COC(=O)CCCCCCCC(=O)OC [Dimethyl nonanedioate]	0	59.7 ± 11	10.6 ± 13	21.8 ± 24	
C=CCOC(=O)/C=C\C(=O)OCC=C [Diprop-2-en-1-yl (2Z)-but-2-enedioate]	3.9 ± 6.8	-44.3 ± 3.7	23.7 ± 6.3	-4.75 ± 8.2	
COP(=S)(OC)Oc1ccc(SC)c(C)c1 [Fenthion]	-2.61 ± 4.5	0.74 ± 16	17.4 ± 5.5	2.04 ± 28	
Clc1ccc(C(Cn2ccnc2)OCc2ccc(Sc3ccccc3)cc2)c(Cl)c1 (configuration not stated) [Fenticonazole nitrate]	3.64 ± 6.3	-8.26 ± 7.2	51.9 ± 25	1.96 ± 25	
O=c1cc(-c2ccccc2)oc2ccccc12 [Flavone]	3.56 ± 6.2	-1.8 ± 3.1	27 ± 10	50.2 ± 3.4	
Cc1c(C)n(Cc2ccccc2)c2ccc(C(=O)OCCN(C)C)cc12 [Indocate]	17 ± 9.1	17.7 ± 6	22.8 ± 4.9	90.6 ± 13	28.7 ± 6.6
Clc1ccc(C(Cn2ccnc2)OCc2c(Cl)cccc2Cl)c(Cl)c1 (configuration not stated) [Isoconazole]	8.24 ± 7.5	1.83 ± 9.7	15 ± 17	65.7 ± 12	13.1 ± 0.89
CCC(C)(CC)c1cc(NC(=O)c2c(OC)cccc2OC)on1 [Isoxaben]	2.21 ± 15	21.1 ± 6.2	20.2 ± 5.5	47.2 ± 16	
CCCCCCCCCCCCN(CCO)CCO [Lauryldiethanolamine]	30.1 ± 14	-45.7 ± 16	-12.7 ± 56	109 ± 17	
COc1ccc(C(=O)c2ccc(C)cc2)c(O)c1 [Mexenone]	10.8 ± 9.8	2.33 ± 4	28 ± 31	9.47 ± 3	
CO[C@@]12[C@H](COC(N)=O)C3=C(C(=O)C(C)=C(N)C3=O)N1C[C@@H]1N[C@@H]12 [Mitomycin C]	12.9 ± 11	-37 ± 6.3	17.2 ± 24	0	
CNC(=S)NN [N-Methylhydrazinecarbothioamide]	91.8 ± 17	-58.5 ± 10	-12.3 ± 42	-0.75 ± 9.8	22.5 ± 2.6

SMILES	efficacy of IL-8 induction [1]	efficacy of cysteine peptide change [2]	efficacy of ARE luciferase induction [3]	efficacy of lysine peptide change [4]	cytotoxicity AC50 [5] [µM]
CC(C)NC(=O)c1ccc(C=O)cc1 [N-isopropyl-4-formylbenzamide]	29.6 ± 51	-2.83 ± 4.9	32.9 ± 39	54.8 ± 7.6	
CCCCCOc1ccccc1/C(=C\SC)n1ccnc1 [Neticonazole]	23.6 ± 1.8	-4.4 ± 7.6	21.4 ± 9.5	64.1 ± 7.7	
O=C(O)c1cccnc1Nc1cccc(C(F)(F)F)c1 [Niflumic acid]	0	40.2 ± 6.4	59.7 ± 37	93.9 ± 56	
NC(=O)N/N=C/c1ccc([N+](=O)[O-])o1 [Nitrofurazone]	0	-39.2 ± 4.3	37 ± 47	-8.37 ± 1.2	
CCCCCCCC/C=C\CCCCCCCC(=O)N(C)CC(=O)O [Oleyl sarcosine]	0	-5.45 ± 4.8	-5.73 ± 8.1	3.95 ± 6.8	
COC(=O)Nc1nc2cc([S+]([O-])c3ccccc3)ccc2[nH]1 (configuration not stated) [Oxfendazole]	2.33 ± 4	13.2 ± 15	0	-8.69 ± 25	
CC1=C(C(=O)Nc2ccccc2)S(=O)(=O)CCO1 [Oxycarboxin]	0		52.3 ± 47		32.9 ± 2.2
CC(=O)Oc1ccc(C2(c3ccc(OC(C)=O)cc3)C(=O)Nc3ccccc32)cc1 [Oxyphenisatin acetate]	0	0.29 ± 11	49 ± 42	34.2 ± 19	
CC(C(=O)O)c1ccc(/C=C2\CCCCC2=O)cc1 (configuration not stated) [Pelubiprofen]	0	-2.83 ± 4.9	-2.46 ± 29	56.7 ± 8.3	
O=C(Oc1ccccc1)c1ccccc1O [Phenyl salicylate]	0	9.93 ± 10	8.07 ± 11	10.7 ± 13	
CCOP(=S)(OCC)Oc1cnc2ccccc2n1 [Quinalphos]	7.62 ± 6.8	97.5 ± 350	37.5 ± 24	10.6 ± 9.3	
CCNc1nc(NC(C)(C)C)nc(SC)n1 [Terbutryn]	4.42 ± 7.7	21.4 ± 20	8.44 ± 7.8	139 ± 22	
CCOC(=O)NC(=S)Nc1ccccc1NC(=S)NC(=O)OCC [Thiophanate]	3.6 ± 6.2	-5.09 ± 4.7	98.8 ± 100	34.5 ± 10	
Cc1cccc(N(C)C(=S)Oc2ccc3c(c2)C2CCC3C2)c1 (configuration not stated) [Tolciclate]	22.4 ± 2.8	-30.8 ± 9.8	46.5 ± 33	-7.88 ± 7	
Cc1ccc(N=C=O)cc1N=C=O [Toluene-2,4-diisocyanate]	33 ± 3.5	-19.2 ± 5	82.9 ± 38	-3.03 ± 21	
NCCc1ccc(O)cc1 [Tyramine]	0	10.7 ± 18	17 ± 9	-1.41 ± 14	
CCCCCCCCN [n-Octylamine]	0	0	47.1 ± 74	-6.29 ± 6.4	
CC(C)(C)OC(=O)c1ccc(O)cc1 [tert-Butyl 4-hydroxybenzoate]	0	-19.7 ± 9.4	28.1 ± 9.8	58.9 ± 23	
